Where a name gives a salt, the structure may show the parent alone. Read-outs that look alike come from different tables or passages of the source.
Legend:
[1] = target: T1, Histamine H3 receptor (Rattus norvegicus, UniProt Q9QYN8); assay: Histamine H3 receptor competition binding with [^3H]NAMHA in rat cerebral cortical membranes
Procedure: Histamine H3 receptor affinity was determined in rat cerebral cortical membranes with [^3H]NAMHA as previously described (Tedford et al., 1995). Animals were euthanized by rapid decapitation and cerebral cortical tissues were harvested and frozen on dry ice. Cerebral cortical membranes were prepared in 50 mM sodium-phosphate buffered saline (pH 7.5 at 4° C.) containing: EDTA (10 mM), phenylmethylsulfonyl fluoride (0.1 mM), chymostatin and leupeptin (each 0.2 mg/50 mL). The final membrane pellets were resuspended in water and stored frozen at −80° C. prior to use. Protein concentrations were determined using the Coomassie Plus Protein Assay (Pierce, Rockford Ill.).
Competition binding was carried out in a total volume of 0.2 mL of 50 mM sodium-phosphate buffer (pH 7.4) using ˜1 nM [^3H]NAMHA ([^3H]—N^α-methylhistamine, available from NEN Research Products of Boston, Mass.) and 0.003 to […] concentrations of the test compounds. Non-specific binding was determined using 10 μM thioperamide. Samples were incubated for 40 minutes at 25° C. and subsequently filtered through Whatman GF/C glass fiber filters pre-soaked in binding buffer with 0.3% polyethyleneimine, using an Inotech cell harvester (Inotech Biosystems International, Lansing Mich.). The filters were rapidly washed three times with Tris-NaCl buffer (25 and 145 mM, respectively, pH 7.4, 4° C.). Samples were quantitated using Ecolume scintillation cocktail (ICN Biomedicals; Costa Mesa Calif.) and a Packard model 1900TR liquid scintillation analyzer (Packard Instrument Co., Downers Grove Ill.). IC50 values were extrapolated from a plot of receptor occupancy (i.e. % bound) vs. log [competitor].

[2] = target: T1, Histamine H3 receptor; conditions: radioligand Kd used in the Ki equation; read-out: Kd for [^3H]NAMHA; cited from earlier work
[3] = rat cerebral cortical membranes, ~1 nM [^3H]NAMHA, 40 minutes at 25° C., Ki=IC50/(1+([ligand]/[Kd]), read-out: Ki

T1 sequence (Q9QYN8 whole entry): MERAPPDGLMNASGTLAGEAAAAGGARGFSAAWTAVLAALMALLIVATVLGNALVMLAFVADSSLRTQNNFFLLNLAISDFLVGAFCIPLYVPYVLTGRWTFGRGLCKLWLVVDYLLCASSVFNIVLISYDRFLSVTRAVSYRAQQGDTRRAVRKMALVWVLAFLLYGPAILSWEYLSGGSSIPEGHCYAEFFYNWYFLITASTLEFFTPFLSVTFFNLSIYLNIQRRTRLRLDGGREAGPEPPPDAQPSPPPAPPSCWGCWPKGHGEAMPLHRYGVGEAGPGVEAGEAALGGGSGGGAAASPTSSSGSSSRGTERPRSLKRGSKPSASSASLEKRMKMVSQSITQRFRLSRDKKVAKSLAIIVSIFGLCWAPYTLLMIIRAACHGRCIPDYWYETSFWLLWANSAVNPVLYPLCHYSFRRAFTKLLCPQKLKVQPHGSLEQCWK

| SMILES | Ki [1, 3] | other results |
| --- | --- | --- |
| N#C[C@@H]1C[C@H]1c1c[nH]cn1 (relative stereo) [Example 1, 4-(trans-2-cyano-cyclopropyl) Imidazole Trifluoroacetic Acid Salt] | 20 nM |  |
| NC(=O)[C@@H]1C[C@H]1c1c[nH]cn1 (relative stereo) [Example 2, 4-(trans-2-aminocarbonyl-cyclopropyl) Imidazole Trifluoroacetic Acid Salt] | 127 nM |  |
| N=C(N)[C@@H]1C[C@H]1c1c[nH]cn1 (relative stereo) [Example 3, 4-(trans-2-amidino-cyclopropyl) Imidazole Di-trifluoroacetic Acid Salt] | 6.7 nM |  |
| NC[C@@H]1C[C@H]1c1c[nH]cn1 (relative stereo) [Example 4, 4-(trans-2-aminomethyl-cyclopropyl) Imidazole Di-hydrochloric Acid Salt] |  | Ki [1]: 4.5 nM |
| OC[C@@H]1C[C@H]1c1c[nH]cn1 (relative stereo) [Example 6, 4-(trans-2-hydroxymethyl-cyclopropyl) Imidazole Trifluoroacetic Acid Salt] | 263 nM |  |
| CNC(=N)[C@@H]1C[C@H]1c1c[nH]cn1 (relative stereo) [Example 7, 4-(trans-2-N-methylamidino-cyclopropyl) Imidazole Di-hydrochloric Acid Salt] | 114 nM |  |
| O/N=C/C1CC1c1c[nH]cn1 (stereo not drawn) [Example 5, 4-(trans-2-N-hydroxyimino-cyclopropyl) Imidazole] | 23 nM |  |
| CNCCc1cnc[nH]1 [[^3H]NAMHA, [^3H]—N^α-methylhistamine] |  | Kd [2]: 0.4 nM |
